Experimental data taken from ChEMBL document CHEMBL5303767, “Data for DCP probe JNJ-4355” (2023).
The source made the active and inactive calls. No cut-off for these calls is given here.

Key:
[1] = biological target: 5-hydroxytryptamine receptor 2B (Homo sapiens) (UniProt P41595); conditions: Compound concentration 10.0 uM
[2] = biological target: D(3) dopamine receptor (Homo sapiens) (UniProt P35462); conditions: Compound concentration 10.0 uM
[3] = biological target: Alpha-1D adrenergic receptor (Homo sapiens) (UniProt P25100); conditions: Compound concentration 10.0 uM
Chain of Alpha-1D adrenergic receptor (Homo sapiens) (P25100 whole entry): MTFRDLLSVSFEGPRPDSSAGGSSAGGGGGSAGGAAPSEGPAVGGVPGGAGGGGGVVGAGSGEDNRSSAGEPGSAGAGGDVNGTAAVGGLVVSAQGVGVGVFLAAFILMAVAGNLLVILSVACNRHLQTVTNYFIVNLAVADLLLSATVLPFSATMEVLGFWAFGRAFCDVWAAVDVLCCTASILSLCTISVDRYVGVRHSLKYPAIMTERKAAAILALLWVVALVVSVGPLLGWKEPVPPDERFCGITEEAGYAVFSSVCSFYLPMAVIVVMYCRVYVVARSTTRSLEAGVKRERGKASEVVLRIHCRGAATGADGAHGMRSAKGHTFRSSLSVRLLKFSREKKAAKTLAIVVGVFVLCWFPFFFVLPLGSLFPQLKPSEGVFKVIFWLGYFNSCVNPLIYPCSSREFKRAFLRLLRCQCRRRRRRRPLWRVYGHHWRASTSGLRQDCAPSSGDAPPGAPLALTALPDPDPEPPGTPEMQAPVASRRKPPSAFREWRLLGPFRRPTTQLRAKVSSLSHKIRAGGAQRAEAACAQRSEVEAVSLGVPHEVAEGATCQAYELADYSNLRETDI

[4] = biological target: Alpha-1B adrenergic receptor (Homo sapiens) (UniProt P35368); conditions: Compound concentration 10.0 uM
[5] = biological target: Histamine H3 receptor (Homo sapiens) (UniProt Q9Y5N1); conditions: Compound concentration 10.0 uM
[6] = biological target: Beta-1 adrenergic receptor (Homo sapiens) (UniProt P08588); conditions: Compound concentration 10.0 uM
[7] = biological target: D(1B) dopamine receptor (Homo sapiens) (UniProt P21918); conditions: Compound concentration 10.0 uM
[8] = biological target: T1, Induced myeloid leukemia cell differentiation protein Mcl-1 (Homo sapiens, UniProt Q07820); assay: HTRF (MCL1)
[9] = biological target: 5-hydroxytryptamine receptor 2A (Homo sapiens) (UniProt P28223); conditions: Compound concentration 10.0 uM
[10] = biological target: T1, Induced myeloid leukemia cell differentiation protein Mcl-1; assay: Caspase Glo MOLP-8 assay; type: functional, cell-based, MOLP8
[11] = biological target: Muscarinic acetylcholine receptor M3 (Homo sapiens) (UniProt P20309); conditions: Compound concentration 10.0 uM
[12] = biological target: Histamine H1 receptor (Homo sapiens) (UniProt P35367); conditions: Compound concentration 10.0 uM
[13] = biological target: Beta-2 adrenergic receptor (Homo sapiens) (UniProt P07550); conditions: Compound concentration 10.0 uM
[14] = biological target: Muscarinic acetylcholine receptor M2 (Homo sapiens) (UniProt P08172); conditions: Compound concentration 10.0 uM
Chain of Muscarinic acetylcholine receptor M2 (Homo sapiens) (P08172 whole entry): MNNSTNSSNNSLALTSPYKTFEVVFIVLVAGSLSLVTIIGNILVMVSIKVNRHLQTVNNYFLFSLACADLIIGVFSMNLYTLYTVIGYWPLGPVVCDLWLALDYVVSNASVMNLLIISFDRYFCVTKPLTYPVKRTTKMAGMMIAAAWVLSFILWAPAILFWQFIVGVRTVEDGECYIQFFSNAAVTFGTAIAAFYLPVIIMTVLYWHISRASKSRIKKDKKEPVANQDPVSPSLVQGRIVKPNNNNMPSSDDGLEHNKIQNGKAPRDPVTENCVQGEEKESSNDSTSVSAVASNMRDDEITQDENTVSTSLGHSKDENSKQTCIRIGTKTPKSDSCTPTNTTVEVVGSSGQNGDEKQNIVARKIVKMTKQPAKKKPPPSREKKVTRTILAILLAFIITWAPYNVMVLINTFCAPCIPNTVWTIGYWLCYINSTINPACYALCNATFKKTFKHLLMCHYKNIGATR

[15] = biological target: T2, Sodium-dependent noradrenaline transporter (Homo sapiens, UniProt P23975); conditions: Compound concentration 10.0 uM
[16] = biological target: Kappa-type opioid receptor (Homo sapiens) (UniProt P41145); conditions: Compound concentration 10.0 uM
Chain of Kappa-type opioid receptor (Homo sapiens) (P41145 whole entry): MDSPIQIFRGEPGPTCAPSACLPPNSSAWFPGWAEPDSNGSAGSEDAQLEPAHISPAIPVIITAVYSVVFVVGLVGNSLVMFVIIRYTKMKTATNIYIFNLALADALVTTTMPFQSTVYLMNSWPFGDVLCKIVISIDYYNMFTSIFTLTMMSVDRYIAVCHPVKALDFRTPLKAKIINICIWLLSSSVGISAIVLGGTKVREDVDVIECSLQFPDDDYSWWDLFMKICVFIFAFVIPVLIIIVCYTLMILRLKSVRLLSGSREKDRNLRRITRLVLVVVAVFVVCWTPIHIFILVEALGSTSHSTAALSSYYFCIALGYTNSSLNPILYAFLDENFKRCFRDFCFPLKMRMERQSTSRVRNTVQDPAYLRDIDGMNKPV

[17] = biological target: 5-hydroxytryptamine receptor 1D (Homo sapiens) (UniProt P28221); conditions: Compound concentration 10.0 uM
[18] = biological target: Alpha-2B adrenergic receptor (Homo sapiens) (UniProt P18089); conditions: Compound concentration 10.0 uM
[19] = biological target: T3, Sodium-dependent dopamine transporter (Homo sapiens, UniProt Q01959); conditions: Compound concentration 10.0 uM
[20] = biological target: 5-hydroxytryptamine receptor 7 (Homo sapiens) (UniProt P34969); conditions: Compound concentration 10.0 uM
[21] = biological target: Alpha-1A adrenergic receptor (Homo sapiens) (UniProt P35348); conditions: Compound concentration 10.0 uM
[22] = biological target: T4, Delta-type opioid receptor (Homo sapiens, UniProt P41143); conditions: Compound concentration 10.0 uM
[23] = biological target: T5, 5-hydroxytryptamine receptor 5A (Homo sapiens, UniProt P47898); assay: GPCRScan assay: inhibition of 5-HT5A; set-up: radioligand conc. used [nm] 2.0 - 3.3, parental cells Flp-In CHO
[24] = biological target: 5-hydroxytryptamine receptor 2C (Homo sapiens) (UniProt P28335); conditions: Compound concentration 10.0 uM
Chain of 5-hydroxytryptamine receptor 2C (Homo sapiens) (P28335 whole entry): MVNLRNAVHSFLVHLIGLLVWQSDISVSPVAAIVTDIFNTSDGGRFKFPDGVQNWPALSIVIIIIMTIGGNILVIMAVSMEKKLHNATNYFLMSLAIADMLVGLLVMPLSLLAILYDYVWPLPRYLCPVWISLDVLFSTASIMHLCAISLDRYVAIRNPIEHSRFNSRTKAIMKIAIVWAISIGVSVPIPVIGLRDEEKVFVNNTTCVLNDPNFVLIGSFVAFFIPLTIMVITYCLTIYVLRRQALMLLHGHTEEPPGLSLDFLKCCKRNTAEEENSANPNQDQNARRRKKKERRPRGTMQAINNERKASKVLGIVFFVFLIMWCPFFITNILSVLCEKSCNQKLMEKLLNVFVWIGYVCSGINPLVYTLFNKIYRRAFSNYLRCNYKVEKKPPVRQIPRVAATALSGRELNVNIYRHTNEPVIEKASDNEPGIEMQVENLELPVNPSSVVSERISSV

[25] = biological target: 5-hydroxytryptamine receptor 3A (Homo sapiens) (UniProt P46098); conditions: Compound concentration 10.0 uM
Chain of 5-hydroxytryptamine receptor 3A (Homo sapiens) (P46098 whole entry): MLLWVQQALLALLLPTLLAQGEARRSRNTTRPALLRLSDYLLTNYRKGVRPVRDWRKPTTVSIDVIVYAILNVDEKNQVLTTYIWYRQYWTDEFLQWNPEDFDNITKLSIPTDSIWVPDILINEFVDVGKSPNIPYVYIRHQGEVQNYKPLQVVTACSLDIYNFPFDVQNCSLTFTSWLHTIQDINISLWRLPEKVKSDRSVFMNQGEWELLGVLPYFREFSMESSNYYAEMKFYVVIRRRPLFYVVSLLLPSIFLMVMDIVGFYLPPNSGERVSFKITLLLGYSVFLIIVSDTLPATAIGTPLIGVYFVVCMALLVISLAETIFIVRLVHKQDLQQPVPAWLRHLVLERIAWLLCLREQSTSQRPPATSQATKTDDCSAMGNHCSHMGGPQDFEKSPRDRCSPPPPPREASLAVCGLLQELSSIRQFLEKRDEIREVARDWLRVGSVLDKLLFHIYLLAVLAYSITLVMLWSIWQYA

[26] = biological target: Sigma intracellular receptor 2 (Homo sapiens) (UniProt Q5BJF2); conditions: Compound concentration 10.0 uM
Chain of Sigma intracellular receptor 2 (Homo sapiens) (Q5BJF2 whole entry): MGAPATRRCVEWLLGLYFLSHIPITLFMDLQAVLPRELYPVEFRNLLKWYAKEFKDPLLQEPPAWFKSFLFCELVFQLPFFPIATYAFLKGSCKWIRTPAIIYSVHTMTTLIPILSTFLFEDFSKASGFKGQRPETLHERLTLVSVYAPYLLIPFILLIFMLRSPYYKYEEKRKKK

[27] = biological target: D(1A) dopamine receptor (Homo sapiens) (UniProt P21728); conditions: Compound concentration 10.0 uM
Rattus norvegicus = species on record: Rattus norvegicus; conditions: Compound concentration 10.0 uM
[28] = biological target: 5-hydroxytryptamine receptor 1A (Homo sapiens, UniProt P08908); assay: GPCRScan assay: inhibition of 5-HT1A; set-up: radioligand conc. used [nm] 0.5 – 1.0, parental cells stable CHO
[29] = biological target: Muscarinic acetylcholine receptor M1 (Homo sapiens) (UniProt P11229); conditions: Compound concentration 10.0 uM
Chain of Muscarinic acetylcholine receptor M1 (Homo sapiens) (P11229 whole entry): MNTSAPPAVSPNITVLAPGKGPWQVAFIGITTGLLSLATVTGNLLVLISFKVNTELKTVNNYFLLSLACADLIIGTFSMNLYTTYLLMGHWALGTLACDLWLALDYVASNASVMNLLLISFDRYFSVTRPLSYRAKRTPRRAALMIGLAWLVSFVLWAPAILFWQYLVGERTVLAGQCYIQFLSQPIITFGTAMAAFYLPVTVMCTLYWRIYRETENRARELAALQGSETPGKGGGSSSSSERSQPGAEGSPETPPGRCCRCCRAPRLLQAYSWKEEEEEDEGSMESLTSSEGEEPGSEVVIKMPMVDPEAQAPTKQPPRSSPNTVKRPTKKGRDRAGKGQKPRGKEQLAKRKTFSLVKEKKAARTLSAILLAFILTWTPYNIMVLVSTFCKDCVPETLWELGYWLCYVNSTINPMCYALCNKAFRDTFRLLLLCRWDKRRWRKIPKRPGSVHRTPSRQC

[30] = biological target: Muscarinic acetylcholine receptor M5 (Homo sapiens) (UniProt P08912); conditions: Compound concentration 10.0 uM
[31] = biological target: D(2) dopamine receptor (Homo sapiens) (UniProt P14416); conditions: Compound concentration 10.0 uM
Chain of D(2) dopamine receptor (Homo sapiens) (P14416 whole entry): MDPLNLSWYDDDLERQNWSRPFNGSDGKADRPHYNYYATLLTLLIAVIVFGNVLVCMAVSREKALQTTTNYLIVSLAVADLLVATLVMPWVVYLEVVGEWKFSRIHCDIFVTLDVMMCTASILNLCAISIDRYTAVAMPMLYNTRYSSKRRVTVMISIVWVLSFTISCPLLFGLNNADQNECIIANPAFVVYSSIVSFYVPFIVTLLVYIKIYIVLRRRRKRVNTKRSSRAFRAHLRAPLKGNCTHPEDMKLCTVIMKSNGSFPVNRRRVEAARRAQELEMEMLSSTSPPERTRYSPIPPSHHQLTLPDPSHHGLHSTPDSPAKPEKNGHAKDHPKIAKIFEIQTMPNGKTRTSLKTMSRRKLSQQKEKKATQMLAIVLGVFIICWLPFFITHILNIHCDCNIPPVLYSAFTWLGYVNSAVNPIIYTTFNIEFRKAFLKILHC

[32] = biological target: T4, Delta-type opioid receptor; assay: GPCRScan assay: inhibition of DOR; set-up: radioligand conc. used [nm] 1.0 – 2.0, parental cells stable HEK
[33] = biological target: Beta-3 adrenergic receptor (Homo sapiens) (UniProt P13945); conditions: Compound concentration 10.0 uM
[34] = biological target: 5-hydroxytryptamine receptor 1A (Homo sapiens) (UniProt P08908); conditions: Compound concentration 10.0 uM
[35] = biological target: D(4) dopamine receptor (Homo sapiens) (UniProt P21917); conditions: Compound concentration 10.0 uM
Chain of D(4) dopamine receptor (Homo sapiens) (P21917 whole entry): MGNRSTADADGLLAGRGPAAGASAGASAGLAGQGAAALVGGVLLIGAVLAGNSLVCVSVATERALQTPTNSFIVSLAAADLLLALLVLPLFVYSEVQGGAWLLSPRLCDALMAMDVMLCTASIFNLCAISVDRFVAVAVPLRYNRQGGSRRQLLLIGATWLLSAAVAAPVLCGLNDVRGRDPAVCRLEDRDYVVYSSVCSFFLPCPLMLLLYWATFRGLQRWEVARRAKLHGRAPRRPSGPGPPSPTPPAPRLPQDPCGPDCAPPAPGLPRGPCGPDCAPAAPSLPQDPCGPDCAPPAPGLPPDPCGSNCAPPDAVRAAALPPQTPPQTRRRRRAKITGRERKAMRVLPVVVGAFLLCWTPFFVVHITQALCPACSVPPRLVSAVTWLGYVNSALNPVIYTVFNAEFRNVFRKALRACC

[36] = biological target: 5-hydroxytryptamine receptor 1B (Homo sapiens) (UniProt P28222); conditions: Compound concentration 10.0 uM
[37] = biological target: Sigma non-opioid intracellular receptor 1 (Homo sapiens) (UniProt Q99720); conditions: Compound concentration 10.0 uM
Chain of Sigma non-opioid intracellular receptor 1 (Homo sapiens) (Q99720 whole entry): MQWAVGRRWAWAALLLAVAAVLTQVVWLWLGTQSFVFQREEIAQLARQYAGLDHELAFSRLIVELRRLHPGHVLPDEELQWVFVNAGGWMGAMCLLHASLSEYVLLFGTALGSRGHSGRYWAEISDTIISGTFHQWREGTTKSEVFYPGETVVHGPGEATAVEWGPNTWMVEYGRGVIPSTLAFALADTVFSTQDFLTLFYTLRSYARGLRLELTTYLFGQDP

[38] = biological target: Histamine H2 receptor (Homo sapiens) (UniProt P25021); conditions: Compound concentration 10.0 uM
Chain of Histamine H2 receptor (Homo sapiens) (P25021 whole entry): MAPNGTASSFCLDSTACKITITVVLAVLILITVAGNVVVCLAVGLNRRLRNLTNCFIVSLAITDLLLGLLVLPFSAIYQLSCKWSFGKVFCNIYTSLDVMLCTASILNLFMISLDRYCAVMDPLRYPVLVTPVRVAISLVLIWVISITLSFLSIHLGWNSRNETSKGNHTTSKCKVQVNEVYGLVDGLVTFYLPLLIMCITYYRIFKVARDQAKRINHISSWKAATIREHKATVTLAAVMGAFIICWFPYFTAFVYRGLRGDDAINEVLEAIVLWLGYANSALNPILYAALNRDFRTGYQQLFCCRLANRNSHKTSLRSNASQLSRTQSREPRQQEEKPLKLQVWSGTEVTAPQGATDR

[39] = biological target: Alpha-2A adrenergic receptor (Homo sapiens) (UniProt P08913); conditions: Compound concentration 10.0 uM
[40] = biological target: T2, Sodium-dependent noradrenaline transporter; assay: GPCRScan assay: inhibition of NET; set-up: radioligand conc. used [nm] 1.3 – 5.0, parental cells stable HEK
[41] = biological target: Muscarinic acetylcholine receptor M4 (Homo sapiens) (UniProt P08173); conditions: Compound concentration 10.0 uM
[42] = biological target: T3, Sodium-dependent dopamine transporter; assay: GPCRScan assay: inhibition of DAT; set-up: radioligand conc. used [nm] 3.6 – 16.0, parental cells stable HEK
[43] = biological target: Alpha-2C adrenergic receptor (Homo sapiens) (UniProt P18825); conditions: Compound concentration 10.0 uM
[44] = biological target: Sodium-dependent serotonin transporter (Homo sapiens) (UniProt P31645); conditions: Compound concentration 10.0 uM
Mu-type opioid receptor [45] = biological target: T6, Mu-type opioid receptor (Homo sapiens, UniProt P35372); conditions: Compound concentration 10.0 uM
T6 sequence (P35372 whole entry): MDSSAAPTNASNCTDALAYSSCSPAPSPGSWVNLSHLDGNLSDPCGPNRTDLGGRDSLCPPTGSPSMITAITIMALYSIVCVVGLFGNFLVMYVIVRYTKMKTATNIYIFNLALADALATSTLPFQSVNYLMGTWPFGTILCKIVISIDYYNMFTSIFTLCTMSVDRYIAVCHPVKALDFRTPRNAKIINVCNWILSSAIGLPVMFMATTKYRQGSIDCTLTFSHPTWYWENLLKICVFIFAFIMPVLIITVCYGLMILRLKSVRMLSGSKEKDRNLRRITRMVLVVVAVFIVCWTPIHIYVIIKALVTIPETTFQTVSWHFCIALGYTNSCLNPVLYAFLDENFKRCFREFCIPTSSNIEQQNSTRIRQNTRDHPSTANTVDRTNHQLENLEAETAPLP

[46] = biological target: T5, 5-hydroxytryptamine receptor 5A; conditions: Compound concentration 10.0 uM
MOLP-8 = assay: MOLP8 cell line Proliferation assay; type: functional, Homo sapiens
KMS-12-PE [47] = assay: KMS-12-PE Bax/Bak dKO cell line Proliferation assay; type: functional, Homo sapiens
MOLM-13 = assay: MOLM-13 cell line Proliferation assay; type: functional, Homo sapiens
MV4-11 = assay: MV4-11 cell line Proliferation assay; type: functional, Homo sapiens
KMS-12-PE [48] = assay: KMS-12-PE MCL-1 KO cell line Proliferation assay; type: functional, Homo sapiens
EOL1 = assay: EOL-1 cell line Proliferation assay; type: functional, Homo sapiens
KMS-12-PE [49] = assay: (§1) KMS-12-PE cell line Proliferation assay; type: functional, Homo sapiens
OCI-AML2 = assay: OCI-AML-2 cell line Proliferation assay; type: functional, Homo sapiens
Bcl-2-like protein 1 = Bcl-2-like protein 1 (Homo sapiens, UniProt Q07817); assay: HTRF (BCL2L1)
NOMO-1 = assay: NOMO-1 cell line Proliferation assay; type: functional, Homo sapiens
Mino = assay: MINO cell line Proliferation assay; type: functional, Homo sapiens
Mu-type opioid receptor [50] = biological target: T6, Mu-type opioid receptor; assay: GPCRScan assay: inhibition of MOR; set-up: radioligand conc. used [nm] 1.0 – 2.0, parental cells stable HEK
SUD4 = assay: SU-DHL-4 cell line Proliferation assay; type: functional, Homo sapiens
KMS-12-PE [51] = assay: as §1; type: functional, Homo sapiens; remark: listed apart in the source
Bcl-2-related protein A1 = Bcl-2-related protein A1 (Homo sapiens, UniProt Q16548); assay: HTRF (BCL2A1)
THP-1 = assay: THP-1 cell line Proliferation assay; type: functional, Homo sapiens
[52] = biological target: Apoptosis regulator Bcl-2 (Homo sapiens, UniProt P10415); assay: HTRF (BCL2); type: functional

COCCOCCn1nc(C)c2c1CSCc1cc(n(C)n1)CCc1cc(c3ccc(F)cc3c1)OCCCn1c(C(=O)O)c(C)c3c-2c(Cl)ccc31
inhibition [1]: 6.21%
inhibition [2]: 18.2%
inhibition [3]: 1.09%
inhibition [4]: -0.92%
inhibition [5]: -6.18%
inhibition [6]: -3.32%
inhibition [7]: 51.7%
Ki [8]: 115 nM (not active)
inhibition [9]: 10.6%
AC50 [10]: > 30000 nM (not active)
inhibition [11]: -1.43%
inhibition [12]: 10.8%
inhibition [13]: -3.65%
inhibition [14]: 4.4%
inhibition [15]: 58.9%
inhibition [16]: 36.6%
inhibition [17]: 31.4%
inhibition [18]: 29.5%
inhibition [19]: 57.7%
inhibition [20]: 19%
inhibition [21]: -4.41%
inhibition [22]: 78%
Ki ([23]; read-out: Ki): 2470 nM
Ki ([23]; read-out: pKi (converted)): 2450 nM
inhibition [24]: 7.75%
inhibition [25]: 8.89%
inhibition [26]: 23.4%
inhibition [27]: 34.7%
inhibition (Rattus norvegicus): 11.8%
Ki ([28]; read-out: Ki): 1700 nM
Ki ([28]; read-out: pKi (converted)): 1580 nM
inhibition [29]: 1.89%
inhibition [30]: 2.15%
inhibition [31]: -6.49%
Ki ([32]; read-out: Ki): 3230 nM
Ki ([32]; read-out: pKi (converted)): 2630 nM
inhibition [33]: 14.2%
inhibition [34]: 76.5%
inhibition [35]: 3.35%
inhibition [36]: 26%
inhibition [37]: 30.7%
inhibition [38]: 11.6%
inhibition [39]: 6.61%
Ki ([40]; read-out: Ki): 2880 nM
Ki ([40]; read-out: pKi (converted)): 2750 nM
inhibition [41]: -9.96%
Ki ([42]; read-out: Ki): 3720 nM
Ki ([42]; read-out: pKi (converted)): 3550 nM
inhibition [43]: 7%
inhibition [44]: 11.4%
inhibition (Mu-type opioid receptor [45]): 10.4%
inhibition [46]: 54.5%

COCCOCCn1nc2c(c1C)-c1c(Cl)ccc3c1c(C)c(C(=O)O)n3CCCOc1cc(cc3c(F)c(Cl)ccc13)CCc1cc(nn1C)CSC2
inhibition [1]: -1.5%
inhibition [2]: 13.5%
inhibition [3]: 2.28%
inhibition [4]: -1.94%
inhibition [5]: 4.96%
inhibition [7]: 26.2%
Ki [8]: 0.015 nM (active)
inhibition [9]: -0.64%
Cell Proliferation AC50 (MOLP-8): 8.7 nM
AC50 [10]: 12 nM (active)
inhibition [11]: -0.43%
inhibition [12]: -0.28%
Cell Proliferation AC50 (KMS-12-PE [47]): >30000 nM
inhibition [13]: 4.71%
inhibition [14]: -0.94%
inhibition [15]: 30.1%
Cell Proliferation AC50 (MOLM-13): 10 nM
inhibition [16]: 0.68%
inhibition [17]: -6.42%
inhibition [18]: 6.6%
Cell Proliferation AC50 (MV4-11): 14 nM
inhibition [19]: 49.5%
inhibition [20]: 20.1%
inhibition [22]: 61.9%
Cell Proliferation AC50 (KMS-12-PE [48]): >30000 nM
Cell Proliferation AC50 (EOL1): 2.1 nM
Cell Proliferation AC50 (KMS-12-PE [49]): 69 nM
inhibition [24]: 1.66%
Cell Proliferation AC50 (OCI-AML2): 48 nM
Ki (Bcl-2-like protein 1): > 5000 nM (not active)
inhibition [25]: 6.57%
inhibition [26]: 17.4%
inhibition [27]: 10.4%
inhibition (Rattus norvegicus): 18.7%
inhibition [29]: 4.67%
inhibition [30]: -9.51%
inhibition [31]: -6.66%
Ki ([32]; read-out: Ki): 871 nM
Ki ([32]; read-out: pKi (converted)): 724 nM
Cell Proliferation AC50 (NOMO-1): 4.8 nM
inhibition [33]: 24.5%
inhibition [34]: 47.8%
inhibition [35]: 2.7%
Cell Proliferation AC50 (Mino): 73 nM
inhibition [36]: 9.97%
inhibition [37]: 20.6%
inhibition [38]: 13.1%
inhibition [39]: 21.5%
Ki (Mu-type opioid receptor [50]): > 10000 nM
pKi (Mu-type opioid receptor [50]): < 5
Cell Proliferation AC50 (SUD4): 21 nM
Cell Proliferation AC50 (KMS-12-PE [51]): 79 nM
Ki (Bcl-2-related protein A1): > 5000 nM (not active)
inhibition [43]: 3.84%
inhibition [44]: 11.2%
inhibition [46]: 28.5%
Cell Proliferation AC50 (THP-1): 27 nM
Ki [52]: > 3750 nM (not active)
